Here are results for four molecules from paper PMC6052858 (Die Pharmazie, 2009).

Where “and” joins values, the source holds several entries; their conditions need not be identical. Equal entries are not always repeated. Where two headings read alike, the source gives them in different places.

Series [1] has as its system P-gp. The note with it: chronic administration of GFJ; ref Varma 2005; cited from earlier work.
For series [2] the following is noted: with GFJ; cited from earlier work.
The conditions of series [3]: cited from earlier work.
A short description of series [4]: Metabolic stability of diltiazem in rat liver S9 fraction. Format: in vitro ADME.
Series [5] is described as follows: Transport of diltiazem mucosal to serosal, normal sac method, rat duodenum. Format: in vitro ADME. Particulars: rifampicin pretreatment.
For series [6] the following is noted: extensive presystemic metabolism; ref Kane et al. 2000; cited from earlier work.
Series [7] can be described thus: in vivo. The note with it: male, Wistar, rat, po, 15 mg/kg.
The mark [8] stands for this setting: multiple dose GFJ, listed as DTZ.

What is called AUC(0-inf) is total exposure, with the tail of the curve extrapolated. The Tmax is the time from dosing to the highest level. Broadly, the AUC(0-t) is exposure summed from dosing to a finite time, without extrapolation to infinity. High values mean more exposure, low ones less exposure. For orientation: Cmax means the maximum level reached in the sampled fluid or tissue. By half-life is commonly meant the time in which the quantity being followed falls by half. High values mean slow loss, low ones fast loss.

For `CC(=O)O[C@H]1C(=O)[C@@]2(C)[C@H]([C@H](OC(=O)c3ccccc3)[C@]3(O)C[C@H](OC(=O)[C@H](O)[C@@H](NC(=O)c4ccccc4)c4ccccc4)C(C)=C1C3(C)C)[C@]1(OC(C)=O)CO[C@@H]1C[C@@H]2O` [paclitaxel], in series [1], the “efflux ratio (ER)” value is 20.8.

Turning to `CCOC(=O)C1=C(COCCN)NC(C)=C(C(=O)OC)C1c1ccccc1Cl` (stereo not drawn) [amlodipine], the “increase of Tmax” value in series [2] was 115%.

On to `COC(=O)C1=C(C)NC(C)=C(C(=O)OC)C1c1ccccc1[N+](=O)[O-]` [nifedipine], for which the “reduction of area under the curve” value in series [3] (intraduodenal, GFJ administered concomitantly, ref Mohri et al. 2000) is recorded as 50%. The “increase of nifedipine levels” value in series [3] (rats, long-term administration of GFJ, intraduodenally, ref Mohri et al. (2000)) is “approximately 1.62 times”.

`COc1ccc([C@@H]2Sc3ccccc3N(CCN(C)C)C(=O)[C@@H]2OC(C)=O)cc1` [Diltiazem, diltiazem]: the “% metabolism of diltiazem” value was 0% in series [4] (control rat liver S9, diltiazem alone 12.5 µM, 1 mg protein/ml, 37 °C, 0 min); 36.61% in series [4] (control rat liver S9, diltiazem alone, 5 min); 49.01% in series [4] (control rat liver S9, diltiazem alone, 10 min); 60.15% in series [4] (control rat liver S9, diltiazem alone, 20 min); 69.56% in series [4] (control rat liver S9, diltiazem alone, 30 min); 77.47% in series [4] (control rat liver S9, diltiazem alone, 40 min). Also, the “% metabolism of diltiazem” value in series [4] (control rat liver S9, diltiazem alone, 60 min) is 88.91%; in series [4] (control rat liver S9, diltiazem alone, 60 min, listed as DTZ) it was 88.9%; in series [4] (control rat liver S9, in presence of testosterone, 0 min) it was 0%; in series [4] (control rat liver S9, in presence of testosterone, 5 min) it was 9.19%; in series [4] (control rat liver S9, in presence of testosterone, 10 min), 16.32%; in series [4] (control rat liver S9, in presence of testosterone, 20 min) it was 29.91%. For the same molecule, the “% metabolism of diltiazem” value in series [4] (control rat liver S9, in presence of testosterone, 30 min) is recorded as 35.67%; in series [4] (control rat liver S9, in presence of testosterone, 40 min), 38.16%; in series [4] (control rat liver S9, in presence of testosterone, 60 min), 41.25%; in series [4] (liver S9 from rats treated with GFJ orally for 7 days, 0 min) it was 0%; in series [4] (liver S9 from rats treated with GFJ orally for 7 days, 5 min) it was 12.79%; in series [4] (liver S9 from rats treated with GFJ orally for 7 days, 10 min), 21.11%. The “% metabolism of diltiazem” value was determined as 28.49% in series [4] (liver S9 from rats treated with GFJ orally for 7 days, 20 min); 31.38% in series [4] (liver S9 from rats treated with GFJ orally for 7 days, 30 min); 40.76% in series [4] (liver S9 from rats treated with GFJ orally for 7 days, 40 min); 48.26% in series [4] (liver S9 from rats treated with GFJ orally for 7 days, 60 min); 48.3% in series [4] (liver S9 from rats treated with GFJ orally for 7 days, 60 min, listed as DTZ). Moreover, the “Increase of mean cumulative efflux of diltiazem vs control” value in series [5] is 35.79%. The T1/2 (diltiazem 15 mg/kg p.o with single dose GFJ) was 31.2 min. Further, the “AUC0–24 (AUC0–t), % inhibition (decrease) compared to control” value (multiple dose GFJ) is recorded as 43.22%; the “AUC0–24 (AUC0–t), % inhibition (decrease) compared to control” value under setting [8] was 43.2%; the “AUC0–24 (AUC0–t), % inhibition (decrease) compared to control” value (single dose GFJ) is listed as 1.26%. Moreover, the “Cmax, % inhibition (decrease) compared to control” value (“Cmax, % inhibition (decrease)” for short) (multiple dose GFJ) worked out at 66.09%; the “Cmax, % inhibition (decrease)” value under setting [8] is 66.0% and 66.1%; the “Cmax, % inhibition (decrease)” value (single dose GFJ) is reported as 23.1%; the “Cmax, % inhibition (decrease)” value (single dose GFJ, listed as DTZ) is listed as 23.14%. Also, the “T1/2, % change compared to control (footnote: % inhibition; text: increased)” value (multiple dose GFJ) is recorded as 136.7%. The “Tmax, % change compared to control (footnote: % inhibition; text: increased)” value (multiple dose GFJ) was 437.5% and the “Tmax, % change compared to control (footnote: % inhibition; text: increased)” value under setting [8] was found to be 437.5%. Also, the “AUC0–∞, % inhibition (decrease) compared to control” value by setting is: under setting [8], 35.1%; (single dose GFJ) 17.98%. Besides, the “T1/2, % change compared to control (footnote: % inhibition)” value is 6.12% (single dose GFJ) and “no statistically significant change” (single dose GFJ, listed as DTZ). In addition, the “Tmax, % change compared to control (footnote: % inhibition)” value is on record as 0% (single dose GFJ) and “no change” (single dose GFJ, listed as DTZ). For the same molecule, the oral bioavailability in series [6] was 40–50%. Further, the AUC(0-inf) in series [7] (in vivo) came to 51.5 ng·h/mL; in series [7] (plasma, AUC0–∞, diltiazem 15 mg/kg p.o with water (control)), 62.8 ng·h/mL; in series [7] (plasma, AUC0–∞, diltiazem 15 mg/kg p.o, multiple dose GFJ), 33.7 ng·h/mL. In addition, in series [7] (plasma), the Tmax amounted to 4.8 min. The AUC(0-t) in series [7] (plasma, AUC0–24, diltiazem 15 mg/kg p.o with water (control)) worked out at 43.6 ng·h/mL; in series [7] (plasma, AUC0–24, diltiazem 15 mg/kg p.o, multiple dose GFJ), 24.8 ng·h/mL. In series [7] (plasma, Cmax, diltiazem 15 mg/kg p.o with water (control), n = 6), this molecule showed a Cmax of 121 ± 16.4 ng/mL. In series [7] (plasma, T1/2, diltiazem 15 mg/kg p.o with water (control)), this molecule had a half-life of 29.4 min.
